{"source": "patent US20260258113A1", "about": "“BETA GLOBIN MIMETIC PEPTIDES AND THEIR USE” (THE UNITED STATES OF AMERICA, AS REPRESENTED BY THE …, priority 2022, published 2026)", "key": {"human omental arteries": {"tested_on": "human omental arteries", "experiment": "Isolated artery pressure myography: vasoconstriction to phenylephrine after alpha globin mimetic or control peptide, then L-NAME", "format": "cell-based", "parameters": "key to Top (Mean) / Bottom (Mean): fitted inner diameter, % of baseline", "settings": "for Bottom (Mean) / Top (Mean): four parameter logistic fit of inner diameter (percentage of baseline) vs phenylephrine; for effect on vasoconstriction response to PE: omental arteries incubated with peptide, 5 μmol/L; for maximal constriction to phenylephrine (4-PL minimum): pairs of omental arteries from five donors", "protocol": "To test this hypothesis, ex vivo pressure myography was performed on pairs of omental arteries obtained from each of five donors in response to escalating doses of the alpha adrenoreceptor agonist phenylephrine (responses fit with four parameter logistic regression best-fit values, FIGS. 6A-6B).\nIsolated artery pressure myography: The pressure myography methodology utilized here for omental arteries is consistent with published protocols for assessing reactivity of mesenteric articles using a DMT pressure myograph (Shahid and Buys, JoVE J Vis Exp. 7.76:50328, 2013). Arteries […] in diameter were dissected from omental tissue on ice and transferred to the culture myograph wells (DMT-USA CM204); arterial inner diameter was measured by video microscope (DMT-USA) with digital calipers (MyoVIEW, DMT-USA).\nAll arteries used developed at least 20% myogenic tone after pressurization, consistent with standards for pressure myography (Shahid and Buys, JoVE J Vis Exp. 7.76:50328, 2013; Butcher et al., JoVE J Vis Exp. 28.62:3674, 2012; Jadeja et al., JoVE J Vis Exp. 6.101:e50997, 2015). Arteries were assessed for vasoconstriction response to the alpha-1-adrenoreceptor agonist phenylephrine (PE) [10^−9-10^−3] M (Sigma-Aldrich). Dose response to PE was then assessed after incubation with either the alpha globin mimetic peptide HbαX or a control peptide (5 μmol/L in KH buffer), and again following incubation with the NOS inhibitor No-Nitro-L-arginine methyl ester HCl (L-NAME, 10^−4 M)(Sigma-Aldrich)."}, "[1]": {"molecular_target": "T1, association of alpha globin with eNOS (Mus musculus, UniProt P70313)", "T1 construct": "host or cells: mice (in vivo), endogenous proteins of resistance arteries", "T1 sequence (P70313 2-1202 limits assumed)": "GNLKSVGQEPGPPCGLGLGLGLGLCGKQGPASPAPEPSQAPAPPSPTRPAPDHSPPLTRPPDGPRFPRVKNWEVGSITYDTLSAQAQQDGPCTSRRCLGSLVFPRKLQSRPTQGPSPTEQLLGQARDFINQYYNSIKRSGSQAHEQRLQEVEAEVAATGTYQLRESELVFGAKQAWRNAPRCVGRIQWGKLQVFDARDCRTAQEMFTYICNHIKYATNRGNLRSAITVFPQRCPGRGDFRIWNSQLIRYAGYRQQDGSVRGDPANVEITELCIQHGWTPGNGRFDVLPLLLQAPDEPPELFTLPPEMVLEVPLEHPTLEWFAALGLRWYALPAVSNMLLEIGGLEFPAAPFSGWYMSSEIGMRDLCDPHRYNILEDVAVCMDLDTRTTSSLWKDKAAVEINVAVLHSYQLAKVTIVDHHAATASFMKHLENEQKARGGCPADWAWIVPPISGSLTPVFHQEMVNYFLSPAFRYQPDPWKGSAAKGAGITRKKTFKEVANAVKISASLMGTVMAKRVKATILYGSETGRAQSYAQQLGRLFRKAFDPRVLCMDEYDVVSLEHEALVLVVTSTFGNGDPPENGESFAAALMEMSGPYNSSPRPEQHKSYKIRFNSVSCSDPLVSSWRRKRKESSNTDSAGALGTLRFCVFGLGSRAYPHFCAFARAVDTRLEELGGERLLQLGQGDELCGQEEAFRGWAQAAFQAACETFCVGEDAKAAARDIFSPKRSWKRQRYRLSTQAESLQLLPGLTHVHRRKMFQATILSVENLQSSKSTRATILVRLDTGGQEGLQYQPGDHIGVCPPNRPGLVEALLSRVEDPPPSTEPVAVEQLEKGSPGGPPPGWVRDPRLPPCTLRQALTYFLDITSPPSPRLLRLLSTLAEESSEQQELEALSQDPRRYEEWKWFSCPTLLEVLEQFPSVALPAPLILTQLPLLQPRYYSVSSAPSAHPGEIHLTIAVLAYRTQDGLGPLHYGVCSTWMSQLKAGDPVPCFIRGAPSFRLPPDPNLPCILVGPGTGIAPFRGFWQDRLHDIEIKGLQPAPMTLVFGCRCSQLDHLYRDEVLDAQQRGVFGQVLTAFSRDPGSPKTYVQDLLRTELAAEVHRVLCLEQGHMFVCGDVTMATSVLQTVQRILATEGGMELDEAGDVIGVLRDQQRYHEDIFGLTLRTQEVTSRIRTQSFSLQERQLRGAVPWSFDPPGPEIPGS", "settings": "mice; cited from earlier work"}, "[2]": {"tested_on": "isolated human omental arteries", "experiment": "Isolated artery pressure myography: vasoconstriction to phenylephrine after beta globin mimetic peptides", "format": "cell-based", "settings": "peptide 5 μmol/L for 45 minutes at 37° C., ex vivo", "protocol": "Collection of omental arteries: Human omental tissue was collected from patients during clinically indicated abdominal operations at the NIH Clinical Center. All patients provided informed consent for tissue procurement on IRB-approved protocol 13-C-0176 (NCT01915225). Tissue removed by the surgeon was immediately submerged in cold 4° C. Krebs-HEPES (KH) buffer (pH 7.4) and kept on ice during dissection and artery isolation. Small arteries were dissected away from the tissue in cold Krebs-HEPES (KH) buffer (Boston BioProducts).\nIdentification of beta globin mimetic peptides: Tetrameric hemoglobin was docked with dimer eNOS oxygenase domain using molecular docking algorithms (HADDOCK2). […]\nIsolated artery pressure myography: The pressure myography methodology utilized here for omental arteries is consistent with published protocols for assessing reactivity of mesenteric articles using a DMT pressure myograph. […] Digital video calipers were used to measure in the inner diameter of cannulated arteries (MyoVIEW, DMT-USA) at two positions, and the average of both measurements was recorded.\nAll arteries developed at least 20% myogenic tone after pressurization, consistent with standards for pressure myography. Arteries were assessed for vasoconstriction response to the alpha-1-adrenoreceptor agonist phenylephrine (PE, Sigma-Aldrich) at successively higher doses ranging from 10^−9 to 10^−3 molar. […]"}, "[3]": {"tested_on": "canine resistance arteries", "experiment": "Pressure myography of canine arteries: phenylephrine dose escalation after Hbb-1", "format": "cell-based", "protocol": "For these studies, omental tissue was removed from a canine laboratory animals soon after euthanasia. Mesenteric arteries 100-300 um in diameter were dissected out of the tissue and cannulated on glass pipettes. The arteries were incubated in a physiologic buffer solution (Krebs-Henseleit) at 37 degrees Celsius and pressured to 60 mm Hg. To assess vasoreactivity, escalating doses of phenylephrine were added to the incubation bath and artery diameter was measured using video microscopy with edge detection and digital calipers. The artery was incubated with 5 uM Hbb-1 peptide (including the tat cell permeability sequence) for 45 minutes. A second phenylephrine dose escalation was applied, and vasoconstriction was measured. The entire experiment was repeated with a second animal donor. In FIG. 20, artery diameter is presented as a percentage of baseline resting diameter at 60 mm Hg of pressure. The means and standard error of the mean were plotted for each condition and phenylephrine dose."}, "[4]": {"settings": "n = 5 human donors, peptide 5 μmol/L, L-NAME 10^-4 M"}, "[5]": {"settings": "four parameter logistic fit, n = 5 human donors, peptide 5 μmol/L, L-NAME 10^-4 M"}, "[6]": {"settings": "log of phenylephrine concentration, four parameter logistic fit, n = 5 human donors, peptide 5 μmol/L, L-NAME 10^-4 M"}}, "note": "Several values for one entry are separate records, joined by “and”; a condition that tells them apart may be missing. Identical values can stand only once. Entries after “also recorded” stand apart in the source; their conditions may differ."}
{"compound": "YGRKKRRQRRRFPYFSTKLTT [control peptide]", "values": [{"measurement": "Bottom (Mean)", "setting": "human omental arteries; [4]", "value": 45.78}, {"measurement": "Top (Mean)", "setting": "human omental arteries; [4]", "value": 100.40}, {"measurement": "HillSlope (Mean)", "setting": "human omental arteries; [5]", "value": "−0.623"}, {"measurement": "LogIC50 (Mean)", "setting": "human omental arteries; [6]", "value": "−6.020"}, {"measurement": "effect on vasoconstriction response to PE", "setting": "human omental arteries", "value": "no significant difference"}, {"measurement": "maximal constriction to phenylephrine (4-PL minimum)", "setting": "human omental arteries; peptide 5 μmol/L", "value": "39.1±3.2 % of baseline diameter"}]}
{"compound": "COC(=O)[C@@H](N)CCCN=C(N)N[N+](=O)[O-].Cl", "note": "[L-NAME, No-Nitro-L-arginine methyl ester HCl]", "values": [{"measurement": "effect of L-NAME on vasoconstriction to PE", "setting": "human omental arteries; control peptide-treated arteries", "value": "no effect"}, {"measurement": "effect of L-NAME on vasoconstriction to PE", "setting": "human omental arteries; mimetic peptide-treated arteries", "value": "vasoconstriction was restored"}, {"measurement": "phenylephrine-induced vasoconstriction after incubation with L-NAME", "setting": "human omental arteries; mimetic peptide-treated arteries, L-NAME 10^-4 M", "value": "41.9±2.0 % of baseline"}]}
{"compound": "YGRKKRRQRRRLSFPTTKTYF [HbαX]", "values": [{"measurement": "Bottom (Mean)", "setting": "human omental arteries; [4]", "value": 64.59}, {"measurement": "Top (Mean)", "setting": "human omental arteries; [4]", "value": 99.93}, {"measurement": "HillSlope (Mean)", "setting": "human omental arteries; [5]", "value": "−0.549"}, {"measurement": "disruption of NO-scavenging in human vessels", "setting": "human omental arteries; human vessels", "value": "potent disruptor of NO-scavenging"}, {"measurement": "LogIC50 (Mean)", "setting": "human omental arteries; [6]", "value": "−5.575"}, {"measurement": "effect on vasoconstriction response to PE", "setting": "human omental arteries; listed as alpha globin mimetic peptide", "value": "significantly inhibited the vasoconstriction response to PE; also recorded: diminished this constriction"}, {"measurement": "maximal constriction to phenylephrine (4-PL minimum)", "setting": "human omental arteries; peptide 5 μmol/L", "value": "64.6±1.6 % of baseline diameter"}, {"measurement": "alpha-1-adrenergic vasoconstriction", "setting": "[1]", "value": "reduced alpha-1-adrenergic vasoconstriction"}, {"measurement": "angiotensin-2 induced hypertension", "setting": "[1]", "value": "protection against angiotensin- 2 induced hypertension"}, {"measurement": "association of alpha globin with eNOS in vivo", "setting": "[1]", "value": "disrupt the association of alpha globin with eNOS"}, {"measurement": "mean arterial blood pressure", "setting": "[1]", "value": "lower mean arterial blood pressure"}]}
{"compound": "TPEEKSAVTALWGK [Hbb-1]", "values": [{"measurement": "effect on human arterial vasoconstriction responses to phenylephrine", "setting": "[2]", "value": "can inhibit vasoconstriction"}, {"measurement": "effect on human arterial vasoconstriction responses to phenylephrine", "setting": "[2]; listed as Hbb-Peptide-1", "value": "potent vasodilatory effects"}, {"measurement": "increase of phenylephrine dose needed to achieve the same degree of vasoconstriction", "setting": "[3]; 5 uM Hbb-1 peptide (including tat sequence) for 45 minutes, two animal donors", "value": "approximately 100 times"}, {"measurement": "effect on phenylephrine-induced vasoconstriction in canine arteries", "setting": "[3]; 5 uM Hbb-1 peptide for 45 minutes", "value": "can inhibit vasoconstriction; also recorded: shifted the vasoconstrictive response to phenylephrine to the right; also recorded: inhibits phenylephrine-induced vasoconstriction"}]}
{"compound": "CNC[C@H](O)c1cccc(O)c1", "note": "[Phenylephrine (PE), phenylephrine]", "values": [{"measurement": "IC50", "setting": "human omental arteries; Homo sapiens, log of phenylephrine concentration, four parameter logistic fit, n = 5 human donors, peptide 5 μmol/L, L-NAME 10^-4 M", "value": 1000, "unit": "nM"}, {"measurement": "Bottom (Mean)", "setting": "human omental arteries; [4]", "value": "46.11 and 39.08"}, {"measurement": "Top (Mean)", "setting": "human omental arteries; [4]", "value": "100.30 and 100.12"}, {"measurement": "LogIC50 (Mean)", "setting": "human omental arteries; [6]", "value": "−5.891"}, {"measurement": "maximal constriction to phenylephrine (4-PL minimum)", "setting": "human omental arteries; peptide 5 μmol/L", "value": "39.1±3.2 % of baseline diameter and 46.1±5.5 % of baseline diameter"}]}
